Assay results taken from PubChem BioAssay AID1963976 (Molecular Pharmacology Branch, DTP, NCI, 2024).
pIC50: −log10 of the molar value.

Test system: 435261-313-R-J1-PDC tumor spheroid viability
Experiment: Anticancer human tumor 435261-313-R-J1-PDC patient-derived colon adenocarcinoma cell line growth inhibition [PI3K]
Details: spheroids with HUVEC and MSC; for pIC50: curve of first compound; for viability, T/C: stronger effect = lower value
Text: Combinatorial screen of targeted agents with the PI3K inhibitors inavolisib, alpelisib, duvelisib, and copanlisib in multi-cell type tumor spheroids
A high-throughput screen of multi-cell type tumor spheroids was designed to identify active combinations of targeted small molecules and PI3K pathway inhibitors. Complex spheroids include a stromal component modeled by human endothelial cells (HUVEC) and fibroblasts modeled by human mesenchymal stem cells (MSCs). The concentration ranges selected for each drug and investigational agent were based upon clinically achievable concentrations if the clinical Cmax of the agent was known.
Compounds. The drugs and investigational agents: inavolisib (NSC800729), alpelisib (NSC765974), duvelisib (NSC772469), copanlisib (NSC816437), ipatasertib (NSC767898), afuresertib (NSC778305), talazoparib (NSC767125), sapanisertib (NSC764658), selumetinib (NSC741078), tovorafenib (DAY101, NSC766906), vemurafenib (NSC761431), ravoxertinib (NSC781343), sotorasib (NSC818433), MRTX1133 (NSC 836407), abemaciclib (NSC 768073), palbociclib (NSC758247), venetoclax (NSC 766270), SY5609 (NSC837396), enzalutamide (NSC755605), and darolutamide (NSC825331), were obtained from the National Cancer Institute (NCI) Developmental Therapeutics Program Chemical Repository. The FDA-approved anticancer drug set is available from the NCI Developmental Therapeutics Program. […] The stock solutions were prepared in dimethyl sulfoxide (DMSO, Sigma-Aldrich, St. Louis, MO, cat. D2650) at 800-fold the tested concentration and stored at -70 degrees C prior to their use. All drugs and investigational agents were tested over a range starting from a high concentration at or near the clinical Cmax and decreasing in half-log increments. If the clinical Cmax for an agent had not been determined, the highest concentration tested was 10 microM.
Cell Culture. All cells were maintained in an incubator at 37 degrees C and 5% CO2 with 95% humidity. The PDC lines were cultured according to standard operating procedures established by the NCI PDMR (https://pdmr.cancer.gov/sops/default.htm). All PDCs were thawed and cultured in Matrigel-coated flasks prepared with a working solution of 1X Ham's F-12 nutrient mix, without supplementation (Invitrogen, Waltham, MA, cat. 11765054), 100 U/mL penicillin-streptomycin (Invitrogen, cat. 15140122), and 2.5% Matrigel (Corning Inc., Corning, NY, cat. 354248) for the first three passages. The 354836-022-R-J1-PDC, 475296-252-R-J1-PDC, and 997726-040-R-J2-PDC lines were cultured in 6A media, which includes advanced DMEM/F-12 (Thermo Fisher Scientific, cat. 12634028), 10 mM HEPES (Thermo Fisher Scientific, cat. 15630080), 1X GlutaMAX supplement (Thermo Fisher Scientific, cat. 35050061), 0.1 mg/mL primocin (InvivoGen, San Diego, CA, cat. ant-pm-2), 10% defined fetal bovine serum, heat inactivated (HyClone Laboratories Inc., Logan, UT, cat. SH30070.03HI), 50% L-WRN conditioned media (ATCC, cat. CRL-3276), 1.25 mM N-Acetyl-L-cysteine (Sigma-Aldrich, cat. A9165), 10 mM nicotinamide (Sigma-Aldrich, cat. N0636), 1X B-27 supplement (Thermo Fisher Scientific, cat. 17504044), 1X N-2 supplement (Thermo Fisher Scientific, cat. 17502048), and 10 microM Y-27632 dihydrochloride (Tocris Bioscience, Bristol, United Kingdom, cat. 1254). The 624824-186-R-J2-PDC line was cultured in 6C/Colon 1B media, which includes all 6A media components plus 50 ng/mL human EGF recombinant protein (Thermo Fisher Scientific, cat. PHG0311). […]

[1] = second compound 0.00316 µM, first compound 0.0316 µM
[2] = second compound 0.00316 µM, first compound 0.1 µM
[3] = second compound 0.00316 µM, first compound 0.316 µM
[4] = second compound 0.00316 µM, first compound 1 µM
[5] = second compound 0.00316 µM, first compound 3.16 µM
[6] = second compound 0.00316 µM, first compound 10 µM
[7] = second compound 0.01 µM, first compound 0.0316 µM
[8] = second compound 0.01 µM, first compound 0.1 µM
[9] = second compound 0.01 µM, first compound 0.316 µM
[10] = second compound 0.01 µM, first compound 1 µM
[11] = second compound 0.01 µM, first compound 3.16 µM
[12] = second compound 0.01 µM, first compound 10 µM
[13] = second compound 0.0316 µM, first compound 0.0316 µM
[14] = second compound 0.0316 µM, first compound 0.1 µM
[15] = second compound 0.0316 µM, first compound 0.316 µM
[16] = second compound 0.0316 µM, first compound 1 µM
[17] = second compound 0.0316 µM, first compound 3.16 µM
[18] = second compound 0.0316 µM, first compound 10 µM
[19] = second compound 0.1 µM, first compound 0.0316 µM
[20] = second compound 0.1 µM, first compound 0.1 µM
[21] = second compound 0.1 µM, first compound 0.316 µM
[22] = second compound 0.1 µM, first compound 1 µM
[23] = second compound 0.1 µM, first compound 3.16 µM
[24] = second compound 0.1 µM, first compound 10 µM
[25] = second compound 0.316 µM, first compound 0.0316 µM
[26] = second compound 0.316 µM, first compound 0.1 µM
[27] = second compound 0.316 µM, first compound 0.316 µM
[28] = second compound 0.316 µM, first compound 1 µM
[29] = second compound 0.316 µM, first compound 3.16 µM
[30] = second compound 0.316 µM, first compound 10 µM
[31] = second compound 1 µM, first compound 0.0316 µM
[32] = second compound 1 µM, first compound 0.1 µM
[33] = second compound 1 µM, first compound 0.316 µM
[34] = second compound 1 µM, first compound 1 µM
[35] = second compound 1 µM, first compound 3.16 µM
[36] = second compound 1 µM, first compound 10 µM

Compound: CC1(C)CCC(CN2CCN(c3ccc(C(=O)NS(=O)(=O)c4ccc(NCC5CCOCC5)c([N+](=O)[O-])c4)c(Oc4cnc5[nH]ccc5c4)c3)CC2)=C(c2ccc(Cl)cc2)C1 + COc1c(OCCCN2CCOCC2)ccc2c3n(c(=NC(=O)c4cnc(N)nc4)nc12)CCN3
- pIC50 (second compound 0.00316 µM): 5.30
- pIC50 (second compound 0.01 µM): 5.49
- pIC50 (second compound 0.0316 µM): > 7.50
- pIC50 (second compound 0.1 µM): > 7.50
- pIC50 (second compound 0.316 µM): > 7.50
- pIC50 (second compound 1 µM): > 7.50
- viability, T/C [1]: 77.8%
- viability, T/C [2]: 65%
- viability, T/C [3]: 59.7%
- viability, T/C [4]: 66.4%
- viability, T/C [5]: 92.9%
- viability, T/C [6]: 15.3%
- viability, T/C [7]: 45.6%
- viability, T/C [8]: 41.2%
- viability, T/C [9]: 44%
- viability, T/C [10]: 81%
- viability, T/C [11]: 49.6%
- viability, T/C [12]: 10%
- viability, T/C [13]: 25.2%
- viability, T/C [14]: 25.9%
- viability, T/C [15]: 28.5%
- viability, T/C [16]: 22.6%
- viability, T/C [17]: 33.9%
- viability, T/C [18]: 8.36%
- viability, T/C [19]: 16.8%
- viability, T/C [20]: 15.3%
- viability, T/C [21]: 14.9%
- viability, T/C [22]: 13.9%
- viability, T/C [23]: 13.5%
- viability, T/C [24]: 5.88%
- viability, T/C [25]: 8.12%
- viability, T/C [26]: 8.36%
- viability, T/C [27]: 8.35%
- viability, T/C [28]: 7.93%
- viability, T/C [29]: 9.73%
- viability, T/C [30]: 4.39%
- viability, T/C [31]: 4.19%
- viability, T/C [32]: 4.08%
- viability, T/C [33]: 4.61%
- viability, T/C [34]: 5.2%
- viability, T/C [35]: 6.19%
- viability, T/C [36]: 3.8%

Compound: CC1(C)CCC(Nc2ncc(C(F)(F)F)c(-c3c[nH]c4c(P(C)(C)=O)c(C#N)ccc34)n2)CN1 (centres undefined) + CC(Nc1ccc2c(c1)OCCn1cc(N3C(=O)OCC3C(F)F)nc1-2)C(N)=O
- pIC50 (second compound 0.00316 µM): 5.92
- pIC50 (second compound 0.01 µM): 5.98
- pIC50 (second compound 0.0316 µM): > 7.50
- pIC50 (second compound 0.1 µM): > 7.50
- pIC50 (second compound 0.316 µM): > 7.50
- pIC50 (second compound 1 µM): > 7.50
- viability, T/C [1]: 46.7%
- viability, T/C [2]: 58.8%
- viability, T/C [3]: 43.8%
- viability, T/C [4]: 58.8%
- viability, T/C [5]: 39.4%
- viability, T/C [6]: 0.93%
- viability, T/C [7]: 52%
- viability, T/C [8]: 53.4%
- viability, T/C [9]: 48%
- viability, T/C [10]: 51.3%
- viability, T/C [11]: 38.6%
- viability, T/C [12]: 0.98%
- viability, T/C [13]: 44.4%
- viability, T/C [14]: 47.9%
- viability, T/C [15]: 38.8%
- viability, T/C [16]: 40.8%
- viability, T/C [17]: 33.4%
- viability, T/C [18]: 0.99%
- viability, T/C [19]: 30%
- viability, T/C [20]: 31.6%
- viability, T/C [21]: 27.2%
- viability, T/C [22]: 30.2%
- viability, T/C [23]: 24.5%
- viability, T/C [24]: 0.45%
- viability, T/C [25]: 24.2%
- viability, T/C [26]: 22.8%
- viability, T/C [27]: 20.1%
- viability, T/C [28]: 20.2%
- viability, T/C [29]: 15%
- viability, T/C [30]: 0.63%
- viability, T/C [31]: 20.9%
- viability, T/C [32]: 15%
- viability, T/C [33]: 17%
- viability, T/C [34]: 18.8%
- viability, T/C [35]: 10.4%
- viability, T/C [36]: 0.26%
